Measured values from PMC11341359, “Assessing the immunogenicity risk of salmon calcitonin peptide impurities using in silico and in vitro methods” (Frontiers in Pharmacology, 2024).
Bridge positions count the residues as written; N and C are the ends. Ends that are not written are not given here. Peptide text beside a SMILES is read from it.

Experiments:
[1] = test system: human donor PBMCs; experiment: In vitro immunogenicity protocol (IVIP) naïve T-cell assay, IFNγ FluoroSpot; format: cell-based; conditions: individual full-length peptides at 20 μg/mL, 14 days, then 48 h IFNγ FluoroSpot; 16 donors; positive: SFC > 50 per 10^6, SI ≥ 2, p < 0.05 vs medium
Protocol: To improve the sensitivity of the T-cell assays, fresh (not frozen) blood samples were obtained from human blood donors for the T-cell assays (internal observations). Specifically, PBMCs were isolated from leukocyte reduction filters obtained from the Rhode Island Blood Center (RIBC) in Providence, RI. To confirm the sufficient breadth of HLA coverage in the donor cohort, high-resolution (4-digit) class II HLA haplotyping of donors was performed at the Transplant Immunology Laboratory at Hartford Hospital in Hartford, CT, using the sequence-specific oligonucleotide method (SSP-PCR). […] supertype alleles were expressed by the donor PBMCs used in the assays reported here (HLA DRB1*0301, *0401, *0701, *1101, *1301, and *1501). The HLA identified for the cohort of subjects used in this study is representative of 81.81% of the HLA alleles expressed by the global population. Forty percent of the donors were female and 60% of the donors were male, and their ages ranged from 17 to 83 years. Donor cohort demographic information and HLA types for each donor are provided in Supplementary Figure S1. To measure the naïve T-cell response to salmon calcitonin and impurity peptides, cells were plated at a density of 2.5 × 10^5 cells per well in 96-well U-bottom cell plates in RPMI 1640 cell culture medium supplemented with IL-2 (10 ng/mL) and IL-7 (20 ng/mL) (Gibco). The cells were incubated with […]®, or a synthetic salmon calcitonin peptide, or individual peptide impurities, at a concentration of 20 μg/mL for 14 days at 37°C/5% CO2, with medium exchanges that include cytokine support (IL-2 and IL-7) on days 4, 7, and 11. A concentration of 20 μg/mL (5.8 μM) was the dose selected for the SCT API and the four selected impurities, following a dose-ranging study performed with […]® to determine the maximum dose at which a T-cell response could be observed with no observed toxicity to the cells. The dose-ranging study was performed following the same protocol as described above. The following control antigens were used in the T-cell assays for each of the PBMC samples: positive controls, keyhole limpet hemocyanin (KLH; Thermo Fisher), and the antigenic peptide pool CEFT (ImmunoSpot). In addition, human serum albumin (HSA; Sigma-Aldrich) was used as a negative control antigen, and phytohemagglutinin (PHA; Thermo Fisher), a T-cell mitogen, was used to confirm T-cell functionality. […] Responses were considered positive if (1) the number of spots was at least twice the background (stimulation index [SI] ≥ 2); (2) there were greater than 50 spot-forming cells (SFCs) per 1.0 × 10^6 PBMCs; and (3) responses were statistically different from the media (Student's t-test). Each of the test articles (SCT API, RLD, or impurity peptide) and each of the positive and negative controls were evaluated in nine replicate wells containing donor PBMCs. Following the 14-day incubation, cells in the nine replicate wells were collected, pooled by the treatment condition, and re-plated in triplicate on a precoated anti-human IFNγ FluoroSpot plate (Mabtech) at a concentration of 1.0 × 10^5 cells per well in the presence of an appropriate test article or control reagent in supplemented RPMI 1640 culture medium. The FluoroSpot plates were incubated for 48 h at 37°C/5% CO2. After 48 h, FluoroSpot plates were developed according to the manufacturer's directions. Spots were counted on an iSpot Spectrum FluoroSpot reading system (AID, Strassberg, Germany) using software 7.0, build 14790. Fluorophore-specific spot parameters were defined using the spot size, spot intensity, and spot gradient. A spot separation algorithm was applied for optimal spot detection. Analysis and counting of spots were performed by unbiased experts at ZellNet Consulting, Inc. (Fort Lee, NJ).

[2] = target: T1, HLA DRB1*0101 (Homo sapiens, UniProt P01903+P01911, A100R/D57E/F55L/F60I/F76Y/I96L/L162R/M171V/P40L/Q125E/R42F/V115G/Y59C); experiment: Class II HLA competition binding assay; conditions: short assay peptides (Cys7 replaced with Ser); competition with biotinylated allele-specific peptide, soluble HLA DR, overnight, time-resolved fluorescence, triplicate, seven concentrations; unit not given
T1 construct: incubated overnight to equilibrium with a soluble HLA DR molecule; purchased Benaroya Research Institute, Seattle, Washington
Protocol: (§1) The class II HLA binding assays performed for these studies measure the binding affinity of a target peptide to HLA DRB1*0101, *0301, *0401, *0701, *0901, *1101, *1301, and *1501 in a standardized competition assay. This assay was originally described by [Steere et al. (2006)] and adapted by EpiVax. Previous publications have described the assay in detail ([McMurry et al., 2007]; [Ardito et al., 2011]). Briefly, unlabeled test peptides are incubated overnight to equilibrium with a soluble HLA DR molecule (Benaroya Research Institute, Seattle, Washington) and a biotinylated, allele-specific competitor peptide. The binding reaction is then neutralized, and peptide–HLA complexes are transferred to a 96-well plate coated with the pan-HLA DR antibody, clone L243 (BioLegend), and incubated overnight. The following day, Europium-labeled streptavidin (PerkinElmer, Waltham, MA) is added to identify the peptide–HLA complexes. An indirect measure of binding is determined by time-resolved fluorescence. Each peptide–HLA binding reaction is evaluated in triplicate over a range of seven concentrations. The percent inhibition values at seven distinct concentrations are used to calculate the IC50 value, defined as the concentration at which the test peptide inhibits 50% of the labeled competitor peptide.
(§2) Peptides that bind to the HLA at an IC50 value of 100 nM or less are considered very high-affinity binders. Peptides that bind at IC50 values ranging from 100 nM to 1,000 nM are considered high-affinity binders. Peptides that bind at IC50 values ranging from 1,000 nM to 10,000 nM are considered moderate-affinity binders. Peptides that bind at IC50 values ranging from 10,000 nM to 100,000 nM are considered low-affinity binders, and those with IC50 values ranging from 100,000 nM to 1,000,000 nM are considered negligible-affinity binders. […] We note that these concentrations are specific for the in vitro HLA-binding assay and are used to compare the relative binding affinities of the impurity sequences to the API and independent from the peptide concentrations described for the in vitro T-cell assays described below.

[3] = target: T2, HLA DRB1*0301 (Homo sapiens, UniProt P01903+P01911, A100K/A102G/A103R/A169T/F55Y/I96L/K41T/L162R/M171V/P40S/Q125H/Q178H/Q39Y/R42S/S66N/T106N/T262R/W38E/Y61H); experiment: Class II HLA competition binding assay; conditions: short assay peptides (Cys7 replaced with Ser); competition with biotinylated allele-specific peptide, soluble HLA DR, overnight, time-resolved fluorescence, triplicate, seven concentrations; unit not given
T2 construct: incubated overnight to equilibrium with a soluble HLA DR molecule; purchased Benaroya Research Institute, Seattle, Washington
Protocol: as §1, §2

[4] = target: T3, HLA DRB1*0401 (Homo sapiens, UniProt P01903+P01911, A100K/A169T/F76Y/I96L/K127E/L162R/M171V/N62H/P40V/Q125Y/R42H/S133A/S149N/S66Y/V115G/V209L/W38E); experiment: Class II HLA competition binding assay; conditions: short assay peptides (Cys7 replaced with Ser); competition with biotinylated allele-specific peptide, soluble HLA DR, overnight, time-resolved fluorescence, triplicate, seven concentrations
T3 construct: incubated overnight to equilibrium with a soluble HLA DR molecule; purchased Benaroya Research Institute, Seattle, Washington
Protocol: as §1, §2

[5] = target: HLA DRB1*0901 (Homo sapiens, UniProt P01903+P01911, A100R/A103E/D57H/D86V/F55Y/F60I/F76Y/I96F/K127E/L162R/M171V/P40D/Q125H/Q99R/R33Q/R42F/S133A/S66N/T210M/V115G/W38K/Y107V/Y59G/Y89S); experiment: Class II HLA competition binding assay; conditions: short assay peptides (Cys7 replaced with Ser); competition with biotinylated allele-specific peptide, soluble HLA DR, overnight, time-resolved fluorescence, triplicate, seven concentrations
Protocol: as §1, §2

[6] = target: T4, HLA DRB1*1101 (Homo sapiens, UniProt P01903+P01911, A100R/A169T/A87E/I96F/K41T/L162R/M171V/P40S/Q125H/Q178H/Q39Y/Q99D/R42S/S66Y/T262R/V115G/W38E); experiment: Class II HLA competition binding assay; conditions: class by IC50; short assay peptides
T4 construct: incubated overnight to equilibrium with a soluble HLA DR molecule; purchased Benaroya Research Institute, Seattle, Washington
Protocol: as §1, §2

[7] = target: T5, HLA DRB1*1501 (Homo sapiens, UniProt P01903+P01911); experiment: Class II HLA competition binding assay; conditions: class by IC50; short assay peptides
T5 construct: incubated overnight to equilibrium with a soluble HLA DR molecule; purchased Benaroya Research Institute, Seattle, Washington
Protocol: as §1, §2

| Percentage of Responding Donors [1] [%] | Responding Donors [1] | IC50, HLA DRB1*0101 [2] | IC50, HLA DRB1*0301 [3] | IC50, HLA DRB1*0401 [4] | IC50, HLA DRB1*0901 [5] | binding affinity class, HLA DRB1*1101 [6] | binding affinity class, HLA DRB1*1501 [7] | Molecule |
| --- | --- | --- | --- | --- | --- | --- | --- | --- |
| 56 | 9 | – | – | – | – | – | – | CSNLSTCVLGKLSQELH (Ac-K) LQTYPRTNTGSGTP (disulfide) [06-LYS-AC18_SCT_18X, full-length SCT impurity, acetylation of lysine 18] |
| 69 | 11 | – | – | – | – | – | – | CSNLSTCVLGKLSQELHKLQTYPRTNTGSGTTP (disulfide 1-7 (inferred)) [17_ENDO-THR31_SCT, full-length SCT impurity, insertion of threonine at position 31] |
| – | – | no binding | no binding | no binding | no binding | negligible affinity | moderate affinity | CC(C)C[C@H](NC(=O)[C@H](CCCCN)NC(=O)[C@@H](N)Cc1c[nH]cn1)C(=O)N[C@@H](CCC(N)=O)C(=O)N[C@H](C(=O)N[C@@H](Cc1ccc(O)cc1)C(=O)N1CCC[C@H]1C(=O)N[C@@H](CCCNC(=N)N)C(=O)N[C@H](C(=O)N[C@H](C(=O)NCC(=O)N[C@@H](CO)C(=O)NCC(=O)N[C@H](C(=O)O)[C@@H](C)O)[C@@H](C)O)[C@@H](C)O)[C@@H](C)O [DES-ASN26_SCT(17-31)] (H-HKLQTYPRTTGSGT-OH; N-terminus and C-terminus assumed) |
